The target of this test is human FXR (NR1H4) (Homo sapiens (Human), UniProt Q96RI1). Nature of the test: Human FXR (NR1H4) Assay (Gal4 promoter driven luciferase reporter, Indigo Bioscience kit IB00601). Type of test: cell-based. To be noted: for Efficacy (%): efficacy normalized to CDCA set as 100%; for EC50: potency ranges. From the text: Assays Human FXR (NR1H4) Assay
Determination of a ligand mediated Gal4 promoter driven transactivation quantify ligand binding mediated activation of FXR. FXR Reporter Assay kit purchased from Indigo Bioscience (Catalogue number: IB00601) to determine the potency and efficacy of compound developed by Enanta that can induce FXR activation. The principle application of this reporter assay system is to quantify functional activity of human FXR. The assay utilizes non-human mammalian cells, CHO (Chinese hamster ovary) cells engineered to express human NR1H4 protein (referred to as FXR). Reporter cells also incorporate the cDNA encoding beetle luciferase which catalyzes the substrates and yields photon emission. Luminescence intensity of the reaction is quantified using a plate-reading luminometer, Envision. Reporter Cells include the luciferase reporter gene functionally linked to an FXR responsive promoter. Thus, quantifying changes in luciferase expression in the treated reporter cells provides a sensitive surrogate measure of the changes in FXR activity. […] The assay is according to the manufacturer's instructions. In brief, the assay was performed in white, 96 well plates using final volume of 100 ul containing cells with different doses of compounds. Retrieve Reporter Cells from −80° C. storage. Perform a rapid thaw of the frozen cells by transferring a 10 ml volume of 37° C. cell recovery medium into the tube of frozen cells. Recap the tube of Reporter Cells and immediately place it in a 37° C. water bath for 5-10 minutes. Retrieve the tube of Reporter Cell Suspension from the water bath. Sanitize the outside surface of the tube with a 70% alcohol swab, and then transfer it into the cell culture hood. Dispense 90 μl of cell suspension into each well of the 96-well Assay Plate. Transfer the plate into 37° C. incubator, allowing the cells adherent to the bottom of the well. Dilute compounds in Dilution Plate (DP), and administrate to cells at Assay Plate (AP). DMSO content of the samples was kept at 0.2%. Cells were incubated for additional 22 hours before luciferase activities were measured. Thirty minutes before intending to quantify FXR activity, remove Detection Substrate and Detection Buffer from the refrigerator and place them in a low-light area so that they may equilibrate to room temperature. Remove the plate's lid and discard all media contents by ejecting it into an appropriate waste container. Gently tap the inverted plate onto a clean absorbent paper towel to remove residual droplets. Cells will remain tightly adhered to well bottoms. Add 100 μl of luciferase detection reagent to each well of the assay plate. Allow the assay plate to rest at room temperature for at least 5 minutes following the addition of LDR. Set the instrument (Envision) to perform a single 5 second “plate shake” prior to reading the first assay well. Read time may be 0.5 second (500 mSec) per well.
(A reporter such as luciferase makes a cellular process visible.)

Sequence of human FXR (NR1H4) (Q96RI1 whole entry, the tested form may be a part): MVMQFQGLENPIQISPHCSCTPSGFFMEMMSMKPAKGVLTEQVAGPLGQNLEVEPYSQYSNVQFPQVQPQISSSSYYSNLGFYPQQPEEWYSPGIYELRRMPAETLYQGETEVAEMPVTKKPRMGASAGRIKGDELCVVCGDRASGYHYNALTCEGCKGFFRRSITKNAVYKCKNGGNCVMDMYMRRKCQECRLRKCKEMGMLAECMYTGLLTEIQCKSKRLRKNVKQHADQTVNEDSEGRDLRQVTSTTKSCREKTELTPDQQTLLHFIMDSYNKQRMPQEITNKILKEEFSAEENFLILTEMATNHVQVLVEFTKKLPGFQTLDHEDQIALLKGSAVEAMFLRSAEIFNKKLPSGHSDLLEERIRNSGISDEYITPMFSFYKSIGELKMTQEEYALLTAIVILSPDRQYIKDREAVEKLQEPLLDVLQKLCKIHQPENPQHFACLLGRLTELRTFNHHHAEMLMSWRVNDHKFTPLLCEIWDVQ

What is called EC50 is the concentration giving half of the maximal effect. Low readings indicate greater potency, high ones weaker potency. Regarding `CC[C@H]1[C@@H](O)[C@@H]2[C@H](CC[C@]3(C)[C@@H]([C@H](C)CCCNC(=O)NS(=O)(=O)c4ccc5ccccc5c4)CC[C@@H]23)[C@@]2(C)CC[C@@H](O)C[C@@H]12` [Example 19], the “Efficacy (%)” value was 323% and the EC50 lay in the range of 100 to 1000 nM.
Regarding `CC[C@H]1[C@@H](O)[C@@H]2[C@H](CC[C@]3(C)[C@@H]([C@H](C)CCCNS(=O)(=O)c4ccccc4)CC[C@@H]23)[C@@]2(C)CC[C@@H](O)C[C@@H]12` [Example 10], the “Efficacy (%)” value came out at 168% and the concentration giving a half-maximal response (EC50) is 100 to 1000 nM.
For `CC[C@H]1[C@@H](O)[C@@H]2[C@H](CC[C@]3(C)[C@@H]([C@H](C)CCNC(=O)NS(=O)(=O)N4CCCCCC4)CC[C@@H]23)[C@@]2(C)CC[C@@H](O)C[C@@H]12` [Example 47], the “Efficacy (%)” value is 361% and the EC50 is below 100 nM.
For `CC[C@H]1[C@@H](O)[C@@H]2[C@H](CC[C@]3(C)[C@@H]([C@H](C)CCNS(=O)(=O)c4cccc(N5CCCCC5)c4)CC[C@@H]23)[C@@]2(C)CC[C@@H](O)C[C@@H]12` [Example 133], the “Efficacy (%)” value is given as 80% and the EC50 is above 10000 nM.
Consider `CC[C@H]1[C@@H](O)[C@@H]2[C@H](CC[C@]3(C)[C@@H]([C@H](C)CCNC(=O)NS(=O)(=O)N(C(C)C)C(C)C)CC[C@@H]23)[C@@]2(C)CC[C@@H](O)C[C@@H]12` [Example 52], for which the “Efficacy (%)” value came out at 281% and the concentration for a half-maximal effect (EC50) was 100 to 1000 nM.
Take `CC[C@H]1[C@@H](O)[C@@H]2[C@H](CC[C@]3(C)[C@@H]([C@H](C)CCCNC(=O)NS(=O)(=O)c4ccc(OC(F)(F)F)cc4)CC[C@@H]23)[C@@]2(C)CC[C@@H](O)C[C@@H]12` [Example 18]: the “Efficacy (%)” value came to 319% and the EC50 was below 100 nM.
As for `CC[C@H]1[C@@H](O)[C@@H]2[C@H](CC[C@]3(C)[C@@H]([C@H](C)CCNC(=O)NS(=O)(=O)N4CC5CC5C4)CC[C@@H]23)[C@@]2(C)CC[C@@H](O)C[C@@H]12` (some centres unmarked) [Example 68], the “Efficacy (%)” value is given as 458% and the EC50 was below 100 nM.
As for `CC[C@H]1[C@@H](O)[C@@H]2[C@H](CC[C@]3(C)[C@@H]([C@H](C)CCNC(=O)NS(=O)(=O)c4ccc5ccccc5c4)CC[C@@H]23)[C@@]2(C)CC[C@@H](O)C[C@@H]12` [Example 1], the “Efficacy (%)” value worked out at 337% and the concentration for a half-maximal effect (EC50) was below 100 nM.
In the same order, the values of `CC[C@H]1[C@@H](O)[C@@H]2[C@H](CC[C@]3(C)[C@@H]([C@H](C)CCCNS(=O)(=O)C(C)C)CC[C@@H]23)[C@@]2(C)CC[C@@H](O)C[C@@H]12` [Example 11] are 267% and 1000 to 10000 nM.
Regarding `CC[C@H]1[C@@H](O)[C@@H]2[C@H](CC[C@]3(C)[C@@H]([C@H](C)CCNC(=O)NS(=O)(=O)c4cccc5ncccc45)CC[C@@H]23)[C@@]2(C)CC[C@@H](O)C[C@@H]12` [Example 107], the “Efficacy (%)” value worked out at 311% and the EC50 fell in the range of 100 to 1000 nM.
As to `CC[C@H]1[C@@H](O)[C@@H]2[C@H](CC[C@]3(C)[C@@H]([C@H](C)CCNC(=O)NS(=O)(=O)c4ccc(C5(C(F)(F)F)CC5)cc4)CC[C@@H]23)[C@@]2(C)CC[C@@H](O)C[C@@H]12` [Example 106], the “Efficacy (%)” value came out at 281% and the EC50 was below 100 nM.
On to `CC[C@H]1[C@@H](O)[C@@H]2[C@H](CC[C@]3(C)[C@@H]([C@H](C)CCNC(=O)NS(=O)(=O)c4ccc(C(C)(C)C)cc4)CC[C@@H]23)[C@@]2(C)CC[C@@H](O)C[C@@H]12` [Example 3], for which the “Efficacy (%)” value is on record as 396% and the 50% effective concentration (EC50) is below 100 nM.
In the same order, the values of `CC[C@H]1[C@@H](O)[C@@H]2[C@H](CC[C@]3(C)[C@@H]([C@H](C)CCNC(=O)NS(=O)(=O)C4CCC(C(C)(C)C)CC4)CC[C@@H]23)[C@@]2(C)CC[C@@H](O)C[C@@H]12` (some centres unmarked) [Example 88] are 378% and below 100 nM.

The values are drawn from patent US10208081B2, “Bile acid derivatives as FXR/TGR5 agonists and methods of use thereof” (Enanta Pharmaceuticals, Inc., priority 2014, dated 2019).
